The values that follow come from patent US4327097A, “Novel penicillins” (Toyama Chemical Co., Ltd., priority 1974, dated 1982).

The test system of assay [1] is Pseudomonas aeruginosa. Nature of the assay: MIC against clinical isolates. The assay is classed as cell-based. The note with it: unit assumed.
Assay [2] concerns the target β-lactamase, Escherichia freundii GN 346 (Citrobacter freundii, UniProt Q46041). Nature of the assay: Resistant activity against β-lactamase, iodometric assay. The assay is classed as biochemical. The note with it: control Cephalorizine = 100. As to the method: (§1) (4) Resistant activity of each cephalosporin compound against β-lactamase, Proteus vulgaris GN 76 and Escherichia freundii GN 346:
(§2) The resistant activity of each cephalosporin compound against β-lactamase was measured in the manner described below.
(§3) β-lactamase was prepared from Proteus vulgaris GN 76 and Escherichia freundii GN 346. 10 ml of an overnight culture in Heart Infusion broth was diluted with 100 ml of a medium containing 2 g of yeast extract, 10 g of polypeptone, 2 g of glucose, 7 g of disodium hydrogen phosphate, 2 g of potassium dihydrogen phosphate, 1.2 g of ammonium sulfate and 0.4 g of magnesium sulfate, per liter, and incubated with shaking at 37° C. After incubation of 2 hrs, Penicillin G (50 μg/ml) was added as the inducer, and further incubated for 2 hrs. The resulting cells were collected by centrifugation (5,000 r.p.m.×10 min.) and washed two times with 0.1 M phosphate buffer (pH 7.0). Subsequently, the cells were subjected to sonication (20 KHz, 5 min.) and then centrifuged at 15,000 r.p.m. for 60 min. By using the supernatant of enzyme fluid, the stability of each compound against β-lactamase was determined by the iodometric assay method. Each numeral shown in Table 7-2 is a relative activity value calculated by assuming as 100 the activity of the control Cephalorizine.

The target of assay [3] is T1, β-lactamase, Proteus vulgaris GN 76 (Proteus vulgaris, UniProt P52664).
T1 construct: By using the supernatant of enzyme fluid; endogenous in cells; host or cells: Proteus vulgaris GN 76 (penicillin G-induced cells, sonicated, 15,000 r.p.m. supernatant)
T1 sequence (P52664 30-300): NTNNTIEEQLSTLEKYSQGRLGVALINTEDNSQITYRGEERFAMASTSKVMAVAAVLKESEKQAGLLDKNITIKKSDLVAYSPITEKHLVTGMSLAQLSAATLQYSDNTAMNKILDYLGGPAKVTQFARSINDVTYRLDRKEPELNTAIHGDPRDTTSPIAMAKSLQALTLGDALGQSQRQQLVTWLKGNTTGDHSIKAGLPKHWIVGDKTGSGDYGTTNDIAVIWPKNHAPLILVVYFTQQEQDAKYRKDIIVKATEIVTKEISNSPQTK
The assay is described as above. The assay is classed as biochemical. Conditions: control Cephalorizine = 100. As to the method: as §1, §2, §3

Assay [4] has as its system Klebsiella pneumoniae. Nature of the assay: MIC against clinical isolates. The note with it: Table 6-4, clinical isolate; unit assumed. The format is cell-based.
For assay [5], the system named is Escherichia coli. Nature of the assay: MIC against clinical isolates. The note with it: unit assumed. The assay is classed as cell-based.
Assay [6] concerns Staphylococcus aureus. Briefly: MIC against clinical isolates. The assay is classed as cell-based. The note with it: unit assumed.
Assay [7] has as its system Shigella flexneri. Briefly: MIC against clinical isolates. The note with it: Table 5-5, clinical isolate; unit assumed. The assay is classed as cell-based. Here is the method:
(§4) The minimum inhibitory concentration (MIC) was determined by the plate method disclosed in "Chemotherapy" (Japan), Vol. 16, (1968), pages 98-99. The culture medium used was a Heart infusion agar (pH 7.4). The number of the cells per plate used in the inoculum was 10^4 (10^6 cells/ml).
(§5) MIC was determined in the same manner as in the preceding paragraph (1).

Assay [8] deals with Shigella sonnei. Briefly: MIC against clinical isolates. The assay is classed as cell-based. The note with it: Table 5-5, clinical isolate; unit assumed. As to the method: as §4, §5
The test system of assay [9] is β-lactamase, Pseudomonas aeruginosa GN 238. Briefly: Resistant activity against β-lactamase, iodometric assay. The format is biochemical. Conditions: β-lactamase from Pseudomonas aeruginosa GN 238; Potassium Penicillin G = 100. Here is the method:
(3) Resistant activity against β-lactamase, Pseudomonas aerugionsa GN 238:
The resistant activity of each compound against β-lactamase was measured in the manner described below.
β-Lactamase was prepared from Pseudomonas aeruginosa GN 238. This microorganism was cultured in 100 ml of a medium containing 2 g of yeast extract, 10 g of polypeptone, 2 g of glucose, 7 g of disodium hydrogen phosphate, 2 g of potassium dihydrogen phosphate, 1.2 g of ammonium sulfate and 0.4 g of magnesium sulfate, per liter, in a 500-ml Erlenmeyer flask for 6 hrs. at 37° C. with shaking. The resulting cells were collected by centrifugation (5,000 r.p.m.×10 min.), washed three times with 0.1 M phosphate buffer (pH 7.0). Subsequently, the cells were subjected to sonication (20 KHz, 20 min.) and then centrifuged at 15,000 r.p.m. for 60 min. By using the supernatant of enzyme fluid, the resistance of each compound against β-lactamase was determined by the iodometric assay method. Each numeral shown in Table 7 is a relative activity value calculated by assuming as 100 the activity of the control Potassium Penicillin G.

≈ marks a conversion by molar mass, not a printed value.

β-lactamase, Escherichia freundii GN 346, sequence (Q46041 entry or part of it): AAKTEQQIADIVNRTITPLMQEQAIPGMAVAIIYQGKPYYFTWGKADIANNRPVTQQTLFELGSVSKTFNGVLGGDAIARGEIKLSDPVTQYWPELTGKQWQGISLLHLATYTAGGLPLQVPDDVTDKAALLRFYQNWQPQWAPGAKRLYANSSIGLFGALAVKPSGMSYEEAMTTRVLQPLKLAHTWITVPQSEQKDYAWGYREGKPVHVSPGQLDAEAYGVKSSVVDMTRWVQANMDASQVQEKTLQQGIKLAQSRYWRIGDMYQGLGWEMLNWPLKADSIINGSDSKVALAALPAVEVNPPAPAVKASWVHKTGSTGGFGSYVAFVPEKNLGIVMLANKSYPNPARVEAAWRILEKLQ

In assay [1] (Table 6-3, clinical isolate), `CN1CCN(C(=O)NC(C(=O)NC2C(=O)N3C(C(=O)O)=C(CSc4nnnn4C)CSC23)c2ccccc2)C(=O)C1=O` (single isomer, unassigned) [Compound No. 63] returned an MIC Pseudomonas aeruginosa GN4 of 25 µg/mL (≈ 40.6 µM), an MIC Pseudomonas aeruginosa GN 82 of 50 µg/mL (≈ 81.2 µM), an MIC Pseudomonas aeruginosa GN 376 of 50 µg/mL (≈ 81.2 µM) and an MIC Pseudomonas aeruginosa GN 2565 of 50 µg/mL (≈ 81.2 µM). The “Relative activity (%) against β-lactamase, E. freundii GN 346” value (from here on “Relative activity (%) … E. freundii GN 346”) in assay [2] was 0.2%. The “Relative activity (%) against β-lactamase, Pr. vulgaris GN 76” value (“Relative activity (%) … Pr. vulgaris GN 76” for short) in assay [3] stood at 6%.
In assay [1] (Table 6-3, clinical isolate, strain number not given), `CC(=O)OCC1=C(C(=O)O)N2C(=O)[C@@H](NC(=O)Cc3cccs3)[C@H]2SC1` [Sodium Cephalothin, reference compound] returned an MIC Pseudomonas aeruginosa GN above 200 µg/mL. For the same compound, in [1] (Table 6-3, clinical isolate), the MIC Pseudomonas aeruginosa GN4 was above 200 µg/mL, the MIC Pseudomonas aeruginosa GN 82 is above 200 µg/mL, the MIC Pseudomonas aeruginosa GN 163 was above 200 µg/mL and the MIC Pseudomonas aeruginosa GN 221 is above 200 µg/mL. For the same compound, in assay [1] (Table 6-3, clinical isolate), the MIC Pseudomonas aeruginosa GN 376 is above 200 µg/mL, the MIC Pseudomonas aeruginosa GN 1035 was above 200 µg/mL, the MIC Pseudomonas aeruginosa GN 1091 was above 200 µg/mL and the MIC Pseudomonas aeruginosa GN 2565 was above 200 µg/mL. This compound gave an MIC Pseudomonas aeruginosa GN 2987 in [1] (Table 6-3, clinical isolate) above 200 µg/mL. In [1] (Table 6-4, clinical isolate), the MIC Pseudomonas aeruginosa S-1 was above 200 µg/mL, the MIC Pseudomonas aeruginosa S-2 was above 200 µg/mL, the MIC Pseudomonas aeruginosa S-3 is above 200 µg/mL and the MIC Pseudomonas aeruginosa S-4 is above 200 µg/mL. In [4], this compound showed an MIC Klebsiella pneumoniae GN 917 of 3.13 µg/mL, an MIC Klebsiella pneumoniae GN 4081 of 12.5 µg/mL and an MIC Klebsiella pneumoniae GN 4117 of 6.25 µg/mL. In [5] (Table 6-2, clinical isolate), the MIC Escherichia coli GN 3435 came to 6.25 µg/mL, the MIC Escherichia coli GN 3452 turned out to be 12.5 µg/mL, the MIC Escherichia coli GN 3481 was found to be 12.5 µg/mL and the MIC Escherichia coli K-1 was determined as 6.25 µg/mL. This compound also displayed an MIC Escherichia coli K-2 in assay [5] (Table 6-2, clinical isolate) of 6.25 µg/mL. Also, in [6] (Table 6-1, clinical isolate), the MIC Staphylococcus aureus F-1 was below 0.4 µg/mL, the MIC Staphylococcus aureus F-2 was below 0.4 µg/mL, the MIC Staphylococcus aureus F-3 was below 0.4 µg/mL and the MIC Staphylococcus aureus F-4 is below 0.4 µg/mL. In assay [6] (Table 6-1, clinical isolate), this compound registered an MIC Staphylococcus aureus F-5 of 1.56 µg/mL, an MIC Staphylococcus aureus MS 8588 below 0.4 µg/mL, an MIC Staphylococcus aureus MS 8596 below 0.4 µg/mL and an MIC Staphylococcus aureus MS 8619 below 0.4 µg/mL. In addition, in [6] (Table 6-1, clinical isolate), the MIC Staphylococcus aureus MS 8684 was below 0.4 µg/mL and the MIC Staphylococcus aureus MS 8713 is below 0.4 µg/mL. For the same compound, the “Relative activity (%) … E. freundii GN 346” value in assay [2] was 17%. Also, the “Relative activity (%) … Pr. vulgaris GN 76” value in assay [3] came out at 105%.
In [1] (Table 6-3, clinical isolate), `O=C(Cc1cccs1)N[C@@H]1C(=O)N2C(C(=O)[O-])=C(C[n+]3ccccc3)CS[C@H]12` [Cephalorizine, reference compound] yielded an MIC Pseudomonas aeruginosa GN4 above 200 µg/mL, an MIC Pseudomonas aeruginosa GN 82 above 200 µg/mL, an MIC Pseudomonas aeruginosa GN 163 above 200 µg/mL and an MIC Pseudomonas aeruginosa GN 221 above 200 µg/mL. In assay [1] (Table 6-3, clinical isolate), this compound gave an MIC Pseudomonas aeruginosa GN 376 above 200 µg/mL, an MIC Pseudomonas aeruginosa GN 1035 above 200 µg/mL, an MIC Pseudomonas aeruginosa GN 1091 above 200 µg/mL and an MIC Pseudomonas aeruginosa GN 2565 above 200 µg/mL. The MIC Pseudomonas aeruginosa GN 2987 in assay [1] (Table 6-3, clinical isolate) was above 200 µg/mL. Moreover, in assay [1] (Table 6-4, clinical isolate), the MIC Pseudomonas aeruginosa S-2 is above 200 µg/mL, the MIC Pseudomonas aeruginosa S-3 is above 200 µg/mL and the MIC Pseudomonas aeruginosa S-4 was above 200 µg/mL. For the same compound, in [2], the “Relative activity (%) … E. freundii GN 346” value came out at 100%. Besides, the “Relative activity (%) … Pr. vulgaris GN 76” value in assay [3] was 100%.
In [7], `CC1(C)S[C@@H]2[C@H](NC(=O)C(C(=O)O)c3ccccc3)C(=O)N2[C@H]1C(=O)O` (some centres unmarked) [Sodium Carbenicillin, reference compound] showed an MIC Shigella flexneri JS 11215 above 200 µg/mL and an MIC Shigella flexneri JS 11839 of 12.5 µg/mL. Also, in assay [8], the MIC Shigella sonnei JS 11232 was above 200 µg/mL and the MIC Shigella sonnei JS 11755 is 12.5 µg/mL. The compound further came in with an MIC Pseudomonas aeruginosa GN 383 in assay [1] (Table 5-3, clinical isolate) of 50 µg/mL. In assay [5] (Table 5-2, clinical isolate), this compound yielded an MIC Escherichia coli GN 3435 of 6.25 µg/mL, an MIC Escherichia coli GN 3452 of 12.5 µg/mL, an MIC Escherichia coli GN 3481 of 6.25 µg/mL and an MIC Escherichia coli K-1 of 6.25 µg/mL. In assay [5] (Table 5-2, clinical isolate), this compound returned an MIC Escherichia coli K-2 of 6.25 µg/mL and an MIC Escherichia coli K-4 of 12.5 µg/mL. In [6] (Table 5-1, clinical isolate), the MIC Staphylococcus aureus F-1 came out at 6.25 µg/mL, the MIC Staphylococcus aureus F-2 amounted to 3.13 µg/mL, the MIC Staphylococcus aureus F-3 is 3.13 µg/mL and the MIC Staphylococcus aureus F-4 was 12.5 µg/mL. In [6] (Table 5-1, clinical isolate), the MIC Staphylococcus aureus MS 8588 worked out at 6.25 µg/mL, the MIC Staphylococcus aureus MS 8596 was determined as 6.25 µg/mL, the MIC Staphylococcus aureus MS 8684 amounted to 6.25 µg/mL and the MIC Staphylococcus aureus MS 8713 was determined as 6.25 µg/mL. The “Relative activity (%), resistant activity against β-lactamase” value in assay [9] was determined as 116%.
